The source of these data is patent publication US20190375766A1, “PROCESS FOR PREPARING HALOGENATED BICYCLIC SYSTEMS” (Bayer CropScience Aktiengesellschaft, priority 2016, published 2019).

The nature of this series: log P by HPLC-MS. The class given is physicochemical.

Regarding `Cn1cnc2cc(C(F)(F)F)ncc21` [Example 1, 3-methyl-6-(trifluoromethyl)-3H-imidazo[4,5-c]pyridine], the chromatographic logP (usually a lipophilicity value derived from retention on a column) was determined as 1.09. Then `Cn1c(I)nc2cc(C(F)(F)F)ncc21` [Example 2, 2-iodo-3-methyl-6-(trifluoromethyl)-3H-imidazo[4,5-c]pyridine], with 1.77; and `Cn1c(Br)nc2cc(C(F)(F)F)ncc21` [Example 3, 2-bromo-3-methyl-6-(trifluoromethyl)-3H-imidazo[4,5-c]pyridine], with 1.71. For the compound `Cn1cnc2cc(C(F)(F)F)nnc21` [Example 4, 7-methyl-3-(trifluoromethyl)-7H-imidazo[4,5-c]pyridazine], the chromatographic logP came out at 0.91.

For the compound `Cn1c(I)nc2cc(C(F)(F)F)nnc21` [Example 5, 6-iodo-7-methyl-3-(trifluoromethyl)-7H-imidazo[4,5-c]pyridazine], the chromatographic logP was 1.66.

`Cn1cnc2cc(C(F)(F)F)cnc21` [Example 6, 3-methyl-6-(trifluoromethyl)-3H-imidazo[4,5-b]pyridine] returned a chromatographic logP of 1.44. In the case of `Cn1c(I)nc2cc(C(F)(F)F)cnc21` [Example 7, 2-iodo-3-methyl-6-(trifluoromethyl)-3H-imidazo[4,5-b]pyridine] it was 2.29.
